{
  "source": "paper PMC3914206",
  "key": {"panel of 442 kinases [1]": {"molecular_target": "T1, panel of 442 kinases (Homo sapiens, UniProt P36888, K663Q)", "T1 construct": "purchased KINOMEscan", "T1 sequence (P36888 27-993 K663Q)": "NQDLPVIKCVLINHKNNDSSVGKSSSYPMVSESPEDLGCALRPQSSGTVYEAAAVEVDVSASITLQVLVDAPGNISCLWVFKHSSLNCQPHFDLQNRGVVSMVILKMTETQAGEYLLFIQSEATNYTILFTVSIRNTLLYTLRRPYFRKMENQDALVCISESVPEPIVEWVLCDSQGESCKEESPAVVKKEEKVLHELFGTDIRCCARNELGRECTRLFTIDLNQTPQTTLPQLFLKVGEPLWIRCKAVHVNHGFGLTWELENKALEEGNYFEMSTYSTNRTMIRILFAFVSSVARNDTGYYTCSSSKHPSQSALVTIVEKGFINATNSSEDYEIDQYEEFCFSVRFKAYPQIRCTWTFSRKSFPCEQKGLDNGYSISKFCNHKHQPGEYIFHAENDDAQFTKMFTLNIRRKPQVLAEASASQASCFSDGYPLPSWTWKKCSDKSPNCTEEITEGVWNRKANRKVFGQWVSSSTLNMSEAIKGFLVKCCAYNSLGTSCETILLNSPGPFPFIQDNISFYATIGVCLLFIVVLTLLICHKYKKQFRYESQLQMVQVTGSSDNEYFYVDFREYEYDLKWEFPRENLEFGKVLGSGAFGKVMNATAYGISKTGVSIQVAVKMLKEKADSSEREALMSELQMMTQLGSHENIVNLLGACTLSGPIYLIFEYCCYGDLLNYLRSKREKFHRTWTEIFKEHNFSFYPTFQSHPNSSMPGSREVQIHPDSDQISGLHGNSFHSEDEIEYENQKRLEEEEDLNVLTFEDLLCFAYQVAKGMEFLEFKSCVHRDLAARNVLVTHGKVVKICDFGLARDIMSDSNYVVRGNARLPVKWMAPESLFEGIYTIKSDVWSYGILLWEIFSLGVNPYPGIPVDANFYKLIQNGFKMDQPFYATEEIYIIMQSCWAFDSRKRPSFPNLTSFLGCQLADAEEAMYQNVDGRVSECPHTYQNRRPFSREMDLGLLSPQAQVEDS", "type": "binding", "details": "Compound Concentration 10 µM", "source_text": "(§1) We assessed the selectivity of members of this scaffold using the KINOMEscan methodology across a near comprehensive panel of 442 kinases [[18,27]]."}, "panel of 442 kinases [2]": {"molecular_target": "T2, panel of 442 kinases (Homo sapiens, UniProt P46734)", "T2 construct": "purchased KINOMEscan", "T2 sequence (P46734 1-347)": "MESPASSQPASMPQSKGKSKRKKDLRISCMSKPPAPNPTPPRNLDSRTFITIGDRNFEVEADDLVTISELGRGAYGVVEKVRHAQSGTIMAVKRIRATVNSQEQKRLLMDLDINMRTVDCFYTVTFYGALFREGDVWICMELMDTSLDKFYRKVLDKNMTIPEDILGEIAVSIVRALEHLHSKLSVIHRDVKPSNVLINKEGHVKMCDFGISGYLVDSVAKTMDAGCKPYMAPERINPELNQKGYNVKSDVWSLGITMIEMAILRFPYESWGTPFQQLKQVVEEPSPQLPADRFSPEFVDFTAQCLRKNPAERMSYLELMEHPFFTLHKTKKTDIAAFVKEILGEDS", "type": "binding", "details": "Compound Concentration 10 µM", "source_text": "as §1"}},
  "data": [
    {"smiles": "COc1cc(C(=O)N2CCC(N3CCN(C)CC3)CC2)ccc1Nc1ncc2c(n1)N(C)c1ccccc1C(=O)N2C", "note": "[15 (LRRK2-IN-1)]", "values": [
      {"measurement": "KINOMEscan: FLT3(K663Q)", "setting": "panel of 442 kinases [1]", "value": 97},
      {"measurement": "KINOMEscan: MEK3", "setting": "panel of 442 kinases [2]", "value": 75}
    ]},
    {"smiles": "COc1cc(C(=O)N2CCC(N3CCN(C)CC3)CC2)ccc1Nc1ncc2c(n1)N1CCc3cccc(c31)C(=O)N2C", "note": "[Compound 24]", "values": [
      {"measurement": "KINOMEscan: FLT3(K663Q)", "setting": "panel of 442 kinases [1]", "value": 100},
      {"measurement": "KINOMEscan: MEK3", "setting": "panel of 442 kinases [2]", "value": 65}
    ]},
    {"smiles": "COc1cc(C(=O)N2CCC(N3CCN(C)CC3)CC2)ccc1Nc1ncc2c(n1)N(C1CCCC1)c1ccccc1C(=O)N2C", "note": "[Compound 25, 11-cyclopentyl-2-((2-methoxy-4-(4-(4-methylpiperazin-1-yl)piperidine-1-carbonyl)phenyl)amino)-5-methyl-5H-benzo[e]pyrimido[5,4-b][1,4]diazepin-6(11H)-one]", "values": [
      {"measurement": "KINOMEscan: FLT3(K663Q)", "setting": "panel of 442 kinases [1]", "value": 100},
      {"measurement": "KINOMEscan: MEK3", "setting": "panel of 442 kinases [2]", "value": 73}
    ]},
    {"smiles": "CCOc1cc(C(=O)N2CCC(N3CCN(C)CC3)CC2)ccc1Nc1ncc2c(n1)N(C1CCCC1)c1ccccc1C(=O)N2C", "note": "[Compound 26]", "values": [
      {"measurement": "KINOMEscan: FLT3(K663Q)", "setting": "panel of 442 kinases [1]", "value": 100},
      {"measurement": "KINOMEscan: MEK3", "setting": "panel of 442 kinases [2]", "value": 86}
    ]}
  ]
}
